Read-outs that look alike come from different tables or passages of the source.
Tested on: Angiotensin II (AII) vasopressor response
Experiment: AII Challenge: antagonism of angiotensin II vasopressor response in conscious spontaneously hypertensive rats
Format: in vivo, rat (male okamoto-Aoki SHR)
Conditions: for inhibition in vivo at 1 mg/kg / inhibition in vivo at 3 mg/kg / inhibition in vivo at 5 mg/kg: Rattus norvegicus; for inhibition in vivo at 1 mg/kg / inhibition in vivo at 3 mg/kg: iv; for inhibition in vivo at 1 mg/kg / Average Change: 1 mg/kg I.V.; for inhibition in vivo at 3 mg/kg / inhibition in vivo at 5 mg/kg: read-out: Inhibition; for inhibition in vivo at 5 mg/kg: po
Text: Conscious Male okamoto-Aoki SHR, 16-20 weeks old, weighing approximately 330 g are purchased from Charles River Labs (Wilmington, Mass.). Conscious rats are restrained in a supine position with elastic tape. The area at the base of the tail is locally anesthetized by subcutaneous infiltration with 2% procaine. […] The cannula is secured, heparinized (1,000 I.U./ml), sealed and the wound is closed. The animals are placed in plastic restraining cages in an upright position. The cannula is attached to a Statham P23Db pressure transducer, and pulsatile blood pressure is recorded to 10-15 minutes with a Gould Brush recorder. […] Angiotensin II (human sequence, Sigma Chem. Co., St. Louis, Mo.) of 0.05 and 0.1 ug/kg i.v. is injected into all rats (predosing response). Then a test compound, vehicle or a known angiotensin II antagonist is administered i.v., i.p. or orally to each set of rats. […] The vasopressor response of angiotensin II is measured for the increase in systolic blood pressure in mmHg.

For CCCCc1nc2ccc([C@H]3[C@@H]4C(=O)CC[C@@H]4ON3C)cc2c(=O)n1Cc1ccc(-c2ccccc2-c2nnn[nH]2)cc1 (relative stereo) [Example 48], the inhibition in vivo at 1 mg/kg (0.5 h, SHR n=2, AII 0.05 mcg/kg IV, 30 min post dose) was 66%, the inhibition in vivo at 1 mg/kg (0.5 h, SHR n=2, AII 0.1 mcg/kg IV, 30 min post dose) was 52% and the inhibition in vivo at 3 mg/kg (0.5 h, SHR n=2, 3 mg/kg I.V., AII 0.05 mcg/kg IV, 30 min post dose) was 93%. The inhibition in vivo at 3 mg/kg (0.5 h, SHR n=2, 3 mg/kg I.V., AII 0.1 mcg/kg IV, 30 min post dose) was 94%, the inhibition in vivo at 1 mg/kg (1 h, SHR n=2, AII 0.05 mcg/kg IV, 60 min post dose) was 55% and the inhibition in vivo at 1 mg/kg (1 h, SHR n=2, AII 0.1 mcg/kg IV, 60 min post dose) was 71%. It also gave an inhibition in vivo at 3 mg/kg (1 h, SHR n=2, 3 mg/kg I.V., AII 0.05 mcg/kg IV, 60 min post dose) of 100%, an inhibition in vivo at 3 mg/kg (1 h, SHR n=2, 3 mg/kg I.V., AII 0.1 mcg/kg IV, 60 min post dose) of 86% and an inhibition in vivo at 1 mg/kg (2 h, SHR n=2, AII 0.05 mcg/kg IV, 120 min post dose) of 49%. For the same compound, the inhibition in vivo at 1 mg/kg (2 h, SHR n=2, AII 0.1 mcg/kg IV, 120 min post dose) was 31%, the inhibition in vivo at 3 mg/kg (2 h, SHR n=2, 3 mg/kg I.V., AII 0.05 mcg/kg IV, 120 min post dose) was 89% and the inhibition in vivo at 3 mg/kg (2 h) was 82%. It also gave an inhibition in vivo at 1 mg/kg (3 h, SHR n=2, AII 0.05 mcg/kg IV, 180 min post dose) of 38%, an inhibition in vivo at 1 mg/kg (3 h, SHR n=2, AII 0.1 mcg/kg IV, 180 min post dose) of 38% and an inhibition in vivo at 3 mg/kg (3 h, SHR n=2, 3 mg/kg I.V., AII 0.05 mcg/kg IV, 180 min post dose) of 60%. It also gave an inhibition in vivo at 3 mg/kg (3 h, SHR n=2, 3 mg/kg I.V., AII 0.1 mcg/kg IV, 180 min post dose) of 47%, an inhibition in vivo at 1 mg/kg (4 h, SHR n=2, AII 0.05 mcg/kg IV, 240 min post dose) of 26% and an inhibition in vivo at 1 mg/kg (4 h, SHR n=2, AII 0.1 mcg/kg IV, 240 min post dose) of 32%. The inhibition in vivo at 3 mg/kg (4 h, SHR n=2, 3 mg/kg I.V., AII 0.05 mcg/kg IV, 240 min post dose) was 60%, the inhibition in vivo at 3 mg/kg (4 h, SHR n=2, 3 mg/kg I.V., AII 0.1 mcg/kg IV, 240 min post dose) was 47% and the inhibition in vivo at 1 mg/kg (5 h, SHR n=2, AII 0.05 mcg/kg IV, 300 min post dose) was 18%. The inhibition in vivo at 1 mg/kg (5 h, SHR n=2, AII 0.1 mcg/kg IV, 300 min post dose) was 30%, the inhibition in vivo at 3 mg/kg (5 h, SHR n=2, 3 mg/kg I.V., AII 0.05 mcg/kg IV, 300 min post dose) was 47% and the inhibition in vivo at 3 mg/kg (5 h, SHR n=2, 3 mg/kg I.V., AII 0.1 mcg/kg IV, 300 min post dose) was 35%. The inhibition in vivo at 1 mg/kg ([…], SHR n=2, AII 0.05 mcg/kg IV, 90 min post dose) was 40%, the inhibition in vivo at 1 mg/kg ([…], SHR n=2, AII 0.1 mcg/kg IV, 90 min post dose) was 52% and the inhibition in vivo at 3 mg/kg ([…], SHR n=2, 3 mg/kg I.V., AII 0.05 mcg/kg IV, 90 min post dose) was 87%. It also gave an inhibition in vivo at 3 mg/kg ([…], SHR n=2, 3 mg/kg I.V., AII 0.1 mcg/kg IV, 90 min post dose) of 76%, an inhibition in vivo at 5 mg/kg (0.5 h, SHR n=2, 5 mg/kg P.O., AII 0.05 mcg/kg IV, 30 min post dose) of 76% and an inhibition in vivo at 5 mg/kg (0.5 h, SHR n=2, 5 mg/kg P.O., AII 0.1 mcg/kg IV, 30 min post dose) of 66%. The inhibition in vivo at 5 mg/kg (1 h, SHR n=2, 5 mg/kg P.O., AII 0.05 mcg/kg IV, 60 min post dose) was 76%, the inhibition in vivo at 5 mg/kg (1 h, SHR n=2, 5 mg/kg P.O., AII 0.1 mcg/kg IV, 60 min post dose) was 74% and the inhibition in vivo at 5 mg/kg (2 h, SHR n=2, 5 mg/kg P.O., AII 0.05 mcg/kg IV, 120 min post dose) was 90%. For the same compound, the inhibition in vivo at 5 mg/kg (2 h, SHR n=2, 5 mg/kg P.O., AII 0.1 mcg/kg IV, 120 min post dose) was 89%, the inhibition in vivo at 5 mg/kg (3 h, SHR n=2, 5 mg/kg P.O., AII 0.1 mcg/kg IV, 180 min post dose) was 74% and the inhibition in vivo at 5 mg/kg (3 h) was 82%. For the same compound, the inhibition in vivo at 5 mg/kg (4 h, SHR n=2, 5 mg/kg P.O., AII 0.05 mcg/kg IV, 240 min post dose) was 94%, the inhibition in vivo at 5 mg/kg (4 h, SHR n=2, 5 mg/kg P.O., AII 0.1 mcg/kg IV, 240 min post dose) was 79% and the inhibition in vivo at 5 mg/kg (5 h, SHR n=2, 5 mg/kg P.O., AII 0.05 mcg/kg IV, 300 min post dose) was 93%. The inhibition in vivo at 5 mg/kg (5 h, SHR n=2, 5 mg/kg P.O., AII 0.1 mcg/kg IV, 300 min post dose) was 79%, the inhibition in vivo at 5 mg/kg ([…], SHR n=2, 5 mg/kg P.O., AII 0.05 mcg/kg IV, 90 min post dose) was 79% and the inhibition in vivo at 5 mg/kg ([…], SHR n=2, 5 mg/kg P.O., AII 0.1 mcg/kg IV, 90 min post dose) was 85%. The “Average Change” value (SHR n=2, AII 0.05 mcg/kg IV, 30 min post dose) was 15 mmHg, the “Average Change” value (SHR n=2, AII 0.05 mcg/kg IV, 60 min post dose) was 20 mmHg and the “Average Change” value (SHR n=2, AII 0.05 mcg/kg IV, 90 min post dose) was 26.5 mmHg. For the same compound, the “Average Change” value (SHR n=2, AII 0.05 mcg/kg IV, 120 min post dose) was 22.5 mmHg and the “Average Change” value (SHR n=2, AII 0.05 mcg/kg IV, 180 min post dose) was 27.5 mmHg.

Reference: patent publication US5294611A, “Angiotensin II receptor blocking 2,3,6 substituted quinazolinones” (American Cyanamid Company, priority 1993, dated 1994)
